US9266817B2, “Catecholamine derivatives for obesity and neurological disorders” (EMORY UNIVERSITY, priority 2009, dated 2016)
Each block holds one molecule with its values, some of them ahead of it.

Key:
[1] = target: T1, TrkB (Mus musculus, UniProt P15209, F616A); type: in vivo; details: 1NMPP1 50 μM; for TrkB tyrosine phosphorylation/activation in mice: L-DOPA 50 mg/kg, DOPS 100 mg/kg
T1 construct: from tissue; host or cells: mouse brain
Method: The DOPS concentration was 20 mg/ml, the vitamin C concentration was 2 mg/ml, and the benserazide concentration was 5 mg/ml. The vitamin C prevents oxidation of the DOPS, and the benserazide is a peripheral inhibitor of AADC and restricts the production of NE from DOPS to the brain. The compounds were added to a tube, and 20 μl of 10 M HCl was added to each ml of DOPS solution. The appropriate amount of water was added to the tube, and then HCl was added to achieve the desired volume. For example, to make 1 mL of a DOPS solution, 20 mg DOPS, 2 mg vitamin C, and 5 mg benserazide were added to a tube, followed by 980 μL of water and 20 μL of 10 M HCl. The solution was vortexed until all DOPS was dissolved. The DOPS solution was injected subcutaneously in a volume of 50 μl/g of mouse. The appropriate amount of DOPS solution was pipetted into a clean tube, followed by the amount of 10 M NaOH required to exactly neutralize the HCl. The solution was then shaken. The amount of 10 M NaOH is the weight of the mouse in microliters. For example, for a 20 g mouse, pipet 1 ml of the DOPS solution is pipetted into a tube and 20 μL of 10 M NaOH is added. For a 30 g mouse, 1.5 mL of the DOPS solution is pipetted into a tube and 30 μl of 10 M NaOH is added. Two to four month-old TrkBF616A mice were pretreated with 1NMPP1 in drinking water (50 μM) 1 day before L-DOPA (50 mg/kg) or DOPS (100 mg/kg) intraperitoneal injection. At times of 2 hours and 5 hours after drug administration, the L-DOPA or DOPS-treated mice were sacrificed, respectively. The brain lysates were prepared and analyzed by immunoblotting against anti-phospho-TrkB Y816 and TrkA Y794 antibodies.
(§1) TrkB F616A mice were pretreated with 1NMPP1 (50 μM) before L-DOPA or DOPS administration.

[2] = target: T2, TrkB (Mus musculus, UniProt P15209); assay: TrkB activation in cortical neurons cultured from BDNF-null mice; type: cell-based; details: 15 min
T2 construct: endogenous in cells; host or cells: primary cortical neurons from BDNF-null, TrkB +/- cross, TrkC knockout and NET -/- mice
Text: (§2) Both antidepressants and exercise increase hippocampal BDNF mRNA expression through enhanced 5-HT and/or NE neurotransmission (Siuciak et al., Pharmacol. Biochem. Behav., 56:131-137, 1997; Dias et al., Neuropharmacology, 45:553-563, 2003; Ivy et al., Pharmacol. Biochem. Behav., 75:81-88, 2003; Garza et al., Pharmacol. Biochem. Behav., 77:209-220, 2004). If catecholamines activated TrkB signaling indirectly by promoting BDNF generation, then scavenging BDNF with its specific antibody would be expected to diminish catecholamines-mediated activation of TrkB. Cultured cortical neurons were pretreated with BDNF-IgG for 30 minutes followed by exposure to BDNF (10 ng/ml) or catecholamines (100 nM) for 15 minutes. […] It was then determined whether catecholamines could activate TrkB in neurons cultured from mice carrying a null mutation of BDNF.

[3] = target: T3, TrkB extracellular domain (ECD) (Homo sapiens, UniProt Q16620); assay: In vitro binding assay with purified TrkB ECD and 3H-ligands; details: purified ECD, 3H-ligand
T3 construct: purified ECD (extracellular domain) and ICD (intracellular domain) proteins from Trk receptors
Method: (§3) Purified TrkA and TrkB ECD or ICD proteins were incubated with different ^3H-catecholamines at 25° C. for 30 minutes in 1 ml of binding buffer (50 mM Tris-HCl, pH 7.4, 100 mM NaCl, 5 nM ^3H-catecholamines (32000 cpm)). After the incubation, the reaction mixture was loaded on a Whatman glass-fiber filter (GF-B) (Whatman Inc.; Piscataway, N.J.). The mixture was washed with 3×5 ml washing buffer (50 mM Tris-HCl, pH 7.4). The dried filter paper was put into a small vial and subjected to liquid scintillation counter analysis. The value of the dissociate constant and the number of sites were obtained from Scatchard plots by using the equation r/[L]free =n/Kd−r/Kd, where r is the ratio of the concentration of bound ligand to the total protein concentration and n is the number of binding sites.
(§4) To determine whether catecholamines bind TrkB directly, an in vitro binding assay was conducted with purified ECD (extracellular domain) and ICD (intracellular domain) proteins from Trk receptors and ^3H-catecholamines. […] To determine whether the binding by catecholamines to TrkB receptor caused dimerization, GST-TrkB was co-transfected into HEK293 cells with HA-TrkB, followed by BDNF or monoamines treatment for 15 minutes.

[4] = target: T4, TrkB (Rattus norvegicus, UniProt Q63604); assay: TrkB activation in cortical neurons after pretreatment with antibodies, receptor antagonists, transporter inhibitors or EDTA (anti-p-TrkB-Y-816 immunoblot); type: cell-based; details: BDNF-IgG 30 minutes, then BDNF 10 ng/ml or catecholamines 100 nM, 15 minutes
T4 construct: endogenous in cells; host or cells: primary rat cortical and hippocampal neurons
Text: as §2
To further investigate the specificity of catecholamines in inducing TrkB activation, cortical neurons were pretreated with control IgG or norepinephrine IgG, a rabbit polyclonal antibody for norepinephrine, followed by catecholamines.
(§5) It was then determined whether catecholamines could activate TrkB in neurons cultured from mice carrying a null mutation of NET.
(§6) The cell lysates were analyzed by immunoblotting with anti-p-TrkB-Y-816.
as §6
A group of primary cortical neurons were pretreated with 1 mM EDTA, and another group of primary cortical neurons were not pretreated. Both groups of primary cortical neurons were then treated with either Zn (100 μM) or a catecholamine (100 nM) for 15 minutes. The neuronal cell lysates were analyzed by immunoblotting with anti-p-TrkB-Y-816 antibody.

[5] = target: T5, TrkB F616A (Mus musculus, UniProt P15209, F616A); assay: TrkB phosphorylation in TrkB F616A or TrkA F592A cortical neurons pretreated with K252a or 1NMPP1; type: cell-based, mice; details: TrkB F616A knock-in cortical neurons
T5 construct: endogenous in cells; host or cells: primary cortical neurons from TrkB F616A knock-in mice
Method: as §1
(§7) On day 7, the primary cortical neurons were pretreated with 100 nM K252a or 1NMPP1 for 30 min, followed by 500 nM ADPP and DDAP. Cell lysates were analyzed by Western blotting.

[6] = target: T6, TrkB F616A (Mus musculus, UniProt P15209); assay: as above; type: cell-based, mice; details: TrkA F592A neurons
T6 construct: endogenous in cells; host or cells: primary cortical neurons from TrkB F616A knock-in mice
Method: as §1, §7

[7] = test system: TrkB F616A knockin mice; assay: Kainic acid-induced neuronal apoptosis in TrkB F616A knockin mice (immunoblotting and Caspase-3 ELISA); type: in vivo; details: 1NMPP1 16.6 ng/kg 2 days before
Method: To determine whether Compound I-11 (ADPP) and Compound I-8 (DDAP) protect neurons from KA-induced apoptosis, TrkB F616A knockin mice were pretreated with inhibitor 1NMPP1 (16.6 ng/kg) 2 days before the experiment. Compound I-8 (DDAP) or Compound I-11 (ADPP) (50 mg/kg) was orally injected into the mice 2 hours before kainic acid (KA) administration (20 mg/kg). Brain lysates were analyzed by immunoblotting and Caspase-3 ELISA. […] The extent of the protective effect correlates with TrkB activation status by these compounds. Active Caspase-3 ELISA correlated with the immunoblotting results (FIG. 28B, right panel).

[8] = test system: mice; assay: Forced swim test; type: in vivo; details: TrkB F616A knockin mice
Method: Accumulating evidence supports that BDNF plays an essential role in mediating antidepressants' therapeutic effects. Infusion of exogenous BDNF into hippocampus or brain stem has antidepressant-like behavioral effect. A forced swim test is broadly used for screening of potential antidepressant drugs and is widely used to measure antidepressant activity. To explore whether Compound I-11 (ADPP) and Compound I-8 (DDAP) have antidepressant effects like BDNF, forced swim tests were conducted. Adult male mice (2-3 months old, n=8) were randomly submitted, without a pre-swim, to a forced swim test of 6 minutes with immobility recorded in the last 4 minutes. Mice were injected intraperitoneally with saline, Compound I-11 (20 mg/kg), or Compound I-8 (20 mg/kg). The mice were allowed to adapt to the test room for 2 days, and the mice were placed in a clear glass cylinder with a diameter of 16 cm, half-filled with clear water at 24° C.
To assess whether the behavior responses caused by catecholamine derivatives is mediated by TrkB receptor, TrkB F616A knockin mice were utilized. The mice were subjected to saline or 1NMPP1 inhibitor pretreatment.

[9] = test system: TrkB F616A cortical neurons; assay: Glutamate-provoked apoptosis of TrkB F616A cortical neurons (TUNEL assay); type: cell-based, mice; set-up: Effect of inhibitor on protective action of norepinephrine: dose or concentration left out as unconfirmed; details: glutamate overnight
Method: Norepinephrine has neuroprotective activity against oxidative stress-induced neuronal apoptosis. To investigate whether this protective action by norepinephrine is mediated through TrkB, apoptosis of TrkB F616A cortical neurons was monitored. Primary cortical neurons were pretreated with inhibitors K252a or 1NMPP1 followed by overnight treatment with 50 mM glutamate.

[10] = target: TrkA (Homo sapiens, UniProt P04629); details: transfected HEK293 cells
Method: as §4

[11] = target: TrkC (Homo sapiens, UniProt Q16288); details: transfected HEK293 cells
Method: as §4

[12] = target: T7, TrkB (Homo sapiens, UniProt Q16620); assay: Activation of transfected TrkB in HEK293 cells with or without DAT or NET; type: cell-based; set-up: expressed in transfected cells; host or cells: HEK293; details: NET transfected HEK293 cells
Target sequence in this assay (Q16620 32-822, species assumed): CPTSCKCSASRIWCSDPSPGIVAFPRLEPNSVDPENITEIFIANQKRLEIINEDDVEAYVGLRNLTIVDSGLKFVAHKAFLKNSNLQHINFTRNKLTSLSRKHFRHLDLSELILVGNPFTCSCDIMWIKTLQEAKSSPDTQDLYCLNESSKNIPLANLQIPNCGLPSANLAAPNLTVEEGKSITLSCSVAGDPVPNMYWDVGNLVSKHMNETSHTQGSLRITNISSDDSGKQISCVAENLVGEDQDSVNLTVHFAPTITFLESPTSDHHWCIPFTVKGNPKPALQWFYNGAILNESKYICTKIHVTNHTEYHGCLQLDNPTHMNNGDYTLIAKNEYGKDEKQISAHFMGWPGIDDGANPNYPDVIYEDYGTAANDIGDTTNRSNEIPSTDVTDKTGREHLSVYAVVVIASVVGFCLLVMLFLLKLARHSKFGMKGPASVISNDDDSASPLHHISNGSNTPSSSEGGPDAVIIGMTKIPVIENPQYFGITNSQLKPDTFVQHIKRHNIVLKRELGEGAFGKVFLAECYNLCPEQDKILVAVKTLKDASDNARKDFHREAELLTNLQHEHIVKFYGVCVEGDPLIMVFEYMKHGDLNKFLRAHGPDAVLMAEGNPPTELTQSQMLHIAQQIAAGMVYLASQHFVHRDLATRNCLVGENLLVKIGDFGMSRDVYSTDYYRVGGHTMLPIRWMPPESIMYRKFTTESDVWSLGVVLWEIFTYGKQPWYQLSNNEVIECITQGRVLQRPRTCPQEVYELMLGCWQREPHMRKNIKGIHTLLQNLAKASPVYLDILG

[13] = target: T2, TrkB; type: cell-based, mice; details: compared to wild-type control neurons
Method: as §5

[14] = target: T8, TrkB intracellular domain (ICD) (Homo sapiens, UniProt Q16620); assay: In vitro binding assay with purified TrkB ICD and 3H-ligands (Scatchard plot)
T8 construct: purified ECD (extracellular domain) and ICD (intracellular domain) proteins from Trk receptors
Method: as §3, §4

[15] = target: T7, TrkB; assay: Tyrosine phosphorylation of TrkB in transfected HEK293 cells; type: cell-based; set-up: expressed in transfected cells; host or cells: HEK293
Method: as §4
Target sequence in this assay (Q16620 32-822, species assumed): as above

[16] = target: T4, TrkB; assay: Immunofluorescent staining with anti-phospho-TrkB Y816 in primary hippocampal neurons; type: cell-based; details: 300 nM, 30 min
Method: Primary Rat Cortical and Hippocampal Neuron Cultures
Primary hippocampal neurons were seeded on poly-L-lysine coated coverslips in a 12-well plate. After 7 days in vitro, the neurons were treated with 100 ng/ml BDNF or variety of neurotransmitters and 7,8-dihydroxyflavone compound (500 nM) for 30 min, and then washed with PBS. Cells were fixed with 3% formaldehyde in PBS at room temperature for 15 min. The cells were then permeabilized and blocked by 0.4% Triton X-100 and 2% FBS in PBS at room temperature for 15 minutes, washed with PBS three times and treated with anti-MAP2 (1:200) and anti-phospho-TrkB antibodies (1:100). After staining with FITC- or Rhodamine-conjugated secondary antibody, the coverslips were mounted on slides. Fluorescent images were taken by OLYMPUS IX71 fluorescence microscope (Olympus; Center Valley, Pa.).
To explore whether monoamine neurotransmitters, including catecholamines (see, e.g., FIG. 1), could stimulate TrkB activation, hippocampal neurons were treated with 300 nM of catecholamines, serotonin, and melatonin for 30 min.

[17] = target: T7, TrkB; assay: TrkB dimerization, co-immunoprecipitation of GST-TrkB and HA-TrkB in HEK293 cells; type: cell-based; set-up: GST; HA; expressed in transfected cells; host or cells: HEK293; details: 15 minutes
Method: as §4
Target sequence in this assay (Q16620 32-822, species assumed): as above
Target sequence in this assay (Q16620 32-822, species assumed): as above

T2 sequence (P15209 32-821): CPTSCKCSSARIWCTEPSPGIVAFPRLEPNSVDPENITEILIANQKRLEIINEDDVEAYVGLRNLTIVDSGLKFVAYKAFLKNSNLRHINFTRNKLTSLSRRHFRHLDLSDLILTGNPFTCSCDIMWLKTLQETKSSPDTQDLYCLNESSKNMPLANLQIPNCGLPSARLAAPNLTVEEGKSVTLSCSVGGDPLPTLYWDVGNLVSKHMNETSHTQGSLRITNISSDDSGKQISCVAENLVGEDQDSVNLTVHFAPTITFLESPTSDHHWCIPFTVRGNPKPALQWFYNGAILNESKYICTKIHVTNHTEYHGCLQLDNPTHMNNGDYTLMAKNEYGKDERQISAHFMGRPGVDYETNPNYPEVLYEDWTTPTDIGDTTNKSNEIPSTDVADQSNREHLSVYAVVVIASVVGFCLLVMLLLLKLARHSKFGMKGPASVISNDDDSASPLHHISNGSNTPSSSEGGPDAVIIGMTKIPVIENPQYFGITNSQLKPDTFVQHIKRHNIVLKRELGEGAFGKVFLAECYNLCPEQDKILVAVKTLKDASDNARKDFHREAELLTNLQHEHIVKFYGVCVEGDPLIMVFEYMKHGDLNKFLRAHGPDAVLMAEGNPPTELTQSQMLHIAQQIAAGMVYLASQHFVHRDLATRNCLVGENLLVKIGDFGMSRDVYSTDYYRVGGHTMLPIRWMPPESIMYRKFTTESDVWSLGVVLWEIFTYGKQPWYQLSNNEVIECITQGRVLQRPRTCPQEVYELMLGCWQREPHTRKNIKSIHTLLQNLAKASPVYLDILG
T4 sequence (Q63604 32-821): as the sequence (P15209 32-821) above, with T3M, S9T, A10T, V32I, R63K, S84G, M153T, L185I, S394T, S770N counted along it
T1 sequence (P15209 32-821 F616A): as the sequence (P15209 32-821) above, with F585A counted along it
T8 sequence (Q16620 455-822 limits assumed): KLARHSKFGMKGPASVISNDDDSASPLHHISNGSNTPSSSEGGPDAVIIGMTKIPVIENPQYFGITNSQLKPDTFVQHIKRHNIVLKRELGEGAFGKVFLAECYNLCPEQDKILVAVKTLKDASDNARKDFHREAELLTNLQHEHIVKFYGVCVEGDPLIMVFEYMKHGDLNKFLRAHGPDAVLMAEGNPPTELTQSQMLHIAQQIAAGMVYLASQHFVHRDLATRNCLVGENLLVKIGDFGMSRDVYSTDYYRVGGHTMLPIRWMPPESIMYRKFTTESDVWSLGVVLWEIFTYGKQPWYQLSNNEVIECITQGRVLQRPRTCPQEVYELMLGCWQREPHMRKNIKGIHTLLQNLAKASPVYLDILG
Chain of TrkC (Q16288 32-839, species assumed): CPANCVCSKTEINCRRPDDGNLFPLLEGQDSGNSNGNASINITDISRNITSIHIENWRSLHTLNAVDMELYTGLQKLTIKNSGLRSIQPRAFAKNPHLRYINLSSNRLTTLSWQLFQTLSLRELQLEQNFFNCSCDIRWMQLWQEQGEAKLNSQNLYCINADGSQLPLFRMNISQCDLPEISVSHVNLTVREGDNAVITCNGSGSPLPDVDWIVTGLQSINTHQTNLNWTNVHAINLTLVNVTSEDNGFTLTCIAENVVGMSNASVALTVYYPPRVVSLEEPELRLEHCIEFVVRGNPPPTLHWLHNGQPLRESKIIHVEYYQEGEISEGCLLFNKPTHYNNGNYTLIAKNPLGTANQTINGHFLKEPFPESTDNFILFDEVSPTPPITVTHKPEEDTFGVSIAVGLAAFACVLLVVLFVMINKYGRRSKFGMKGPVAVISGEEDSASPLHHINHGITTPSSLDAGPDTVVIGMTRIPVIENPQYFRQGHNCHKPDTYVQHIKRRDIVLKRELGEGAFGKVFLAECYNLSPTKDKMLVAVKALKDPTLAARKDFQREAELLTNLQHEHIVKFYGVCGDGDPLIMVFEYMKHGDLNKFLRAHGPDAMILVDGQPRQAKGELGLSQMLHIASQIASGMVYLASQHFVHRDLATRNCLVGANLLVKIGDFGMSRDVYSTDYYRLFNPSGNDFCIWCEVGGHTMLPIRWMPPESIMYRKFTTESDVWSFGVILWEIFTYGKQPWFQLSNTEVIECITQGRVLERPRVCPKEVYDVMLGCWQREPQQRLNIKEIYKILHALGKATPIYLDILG
Chain of TrkA (P04629 33-796, species assumed): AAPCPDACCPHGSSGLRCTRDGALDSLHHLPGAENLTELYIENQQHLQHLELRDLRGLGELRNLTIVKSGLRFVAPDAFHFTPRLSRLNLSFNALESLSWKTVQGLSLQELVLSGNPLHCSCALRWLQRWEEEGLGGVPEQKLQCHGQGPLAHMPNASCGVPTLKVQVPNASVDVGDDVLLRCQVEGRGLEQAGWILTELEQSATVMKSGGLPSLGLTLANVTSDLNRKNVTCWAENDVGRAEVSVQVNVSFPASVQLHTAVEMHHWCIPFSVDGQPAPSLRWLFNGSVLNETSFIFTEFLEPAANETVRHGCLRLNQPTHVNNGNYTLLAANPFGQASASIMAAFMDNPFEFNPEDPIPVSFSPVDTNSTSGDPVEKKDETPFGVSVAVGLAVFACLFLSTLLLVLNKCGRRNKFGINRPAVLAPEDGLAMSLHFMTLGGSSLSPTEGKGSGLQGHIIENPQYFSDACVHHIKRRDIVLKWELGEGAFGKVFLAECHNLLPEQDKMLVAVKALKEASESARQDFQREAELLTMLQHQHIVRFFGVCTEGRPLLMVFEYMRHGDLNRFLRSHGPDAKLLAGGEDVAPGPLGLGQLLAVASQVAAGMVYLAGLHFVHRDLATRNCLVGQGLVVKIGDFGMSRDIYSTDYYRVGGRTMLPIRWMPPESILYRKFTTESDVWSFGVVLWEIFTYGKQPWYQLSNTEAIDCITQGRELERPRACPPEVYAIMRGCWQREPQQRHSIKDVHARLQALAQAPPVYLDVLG
T5 sequence (P15209 32-821 F616A): as the sequence (P15209 32-821) above, with F585A counted along it
T6 sequence (P15209 32-821 F616A): as the sequence (P15209 32-821) above, with F585A counted along it
T3 sequence (Q16620 32-430 limits assumed): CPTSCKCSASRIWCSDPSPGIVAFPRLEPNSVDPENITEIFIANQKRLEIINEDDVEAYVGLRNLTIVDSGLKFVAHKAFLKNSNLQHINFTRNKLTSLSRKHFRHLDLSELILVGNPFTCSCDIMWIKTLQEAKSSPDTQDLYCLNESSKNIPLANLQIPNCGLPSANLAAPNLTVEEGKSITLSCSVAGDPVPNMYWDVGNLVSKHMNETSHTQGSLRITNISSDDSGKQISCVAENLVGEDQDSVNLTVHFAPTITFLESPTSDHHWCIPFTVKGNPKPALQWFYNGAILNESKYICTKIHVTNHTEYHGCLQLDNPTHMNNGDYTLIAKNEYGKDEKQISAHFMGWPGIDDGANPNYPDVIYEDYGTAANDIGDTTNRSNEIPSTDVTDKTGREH

Molecule: O=c1cc(-c2ccccc2)oc2c(O)c(O)ccc12 [7,8-dihydroxyflavone]
- TrkB tyrosine phosphorylation/activation in mice [1]: provoked evident TrkB activation
- Activation of TrkB in BDNF-null cortical neurons [2]: evident activation of TrkB
- Binding to ECD of TrkB receptor [3]: selectively bound
- Effect of BDNF-IgG pretreatment on phosphorylation of TrkB induced by the substance [4]: had no effect

Molecule: CC(C)(C)n1nc(Cc2cccc3ccccc23)c2c(N)ncnc21 [Compound 1NMPP1]
- Effect of inhibitor on catecholamine-provoked TrkB phosphorylation [5]: selectively reduced
- Effect of inhibitor on catecholamine-induced TrkB activation [6]: but not by 1NMPP1
- TrkB tyrosine phosphorylation/activation in mice [1]: had no effect
- Effect of 1NMPP1 pretreatment on TrkB activation by 7,8-dihydroxyflavone, L-DOPA and DOPS ([1]; TrkB F616A mice): markedly diminished TrkB activation
- Effect of 1NMPP1 pretreatment on protective effect of Compounds I-8 and I-11 [7]: blocked the protective effect
- Immobility times, 1NMPP1 versus saline treated control groups [8]: No significant difference
- Effect of inhibitor on protective action of norepinephrine [9]: abolished

Molecule: CNC[C@H](O)c1ccc(O)c(O)c1 [epinephrine]
- Tyrosine phosphorylation of TrkA [10]: but not in TrkA
- Tyrosine phosphorylation of TrkC [11]: but not in TrkA or TrkC
- Increase of stimulatory activity by overexpression of NET compared to control cells [12]: approximately 100 fold
- TrkB activation in NET -/- neurons [13]: completely blocked
- Binding to ICD of TrkB receptor ([14]; purified ICD, 3H-ligand): strongest binding activity
- Kd ([14]; purified protein, 25° C., 30 minutes, read-out: TrkB binding constants (Scatchard plot)): 1100 nM
- Tyrosine phosphorylation of TrkB [15]: elicited tyrosine phosphorylation

- Activation of TrkB in BDNF-null cortical neurons [2]: evident activation of TrkB
- TrkB homodimerization [17]: elicited TrkB homodimerization
- Effect of BDNF-IgG pretreatment on phosphorylation of TrkB induced by the substance [4]: abolished
B1: BDNF: Brain-derived neurotrophic factor, natural ligand of TrkB (protein, UniProt P23560 19-247, looked up)
Neurotrophic factor BDNF …: APMKEANIRGQGGLAYPGVRTHGTLESVNGPKAGSRGLTSLADTFEHVIEELLDEDQKVRPNEENNKDADLYTSRVMLSSQVPLEPPLLFLLEEYKNYLDAANMSMRVRRHSDPARRGELSVCDSISEWVTAADKKTAVDMSGGTVTVLEKVPVSKGQLKQYFYETKCNPMGYTKEGCRGIDKRHWNSQCRTTQSYVRALTMDSKKRIGWRFIRIDTSCVCTLTIKRGR
- TrkB tyrosine phosphorylation (immunofluorescent staining) [16]: strongly triggered TrkB tyrosine phosphorylation
